The results in this text go back to the METLIN SMRT retention time set (Domingo-Almenara et al. 2019).

The series can be described thus: gradient 5% acetonitrile 3 min, to 50% in 2 min, to 85% in 15 min, held 3 min, 100 µL/min. As to conditions: column: Zorbax Extend-C18 2.1 x 50 mm; eluents: water / acetonitrile, 0.1% formic acid. In short, it runs like this:
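Mixtures of ~100 pure standards were chromatographed on a Zorbax Extend-C18 column (2.1 × 50 mm, 1.8 μm) at 100 μL/min using water and acetonitrile, each with 0.1% formic acid. Detection used a quadrupole time-of-flight mass spectrometer in positive and negative ionization mode, and data collection spanned 3 months. Retention time was obtained from adduct peaks picked computationally and each checked manually.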
The compound `CCc1nc2cc(N3CCCC(C(=O)NC(C)C)C3)cnc2nc1CC` (stereo not given) displayed an RP-LC retention time of 747 s.

`COc1ccc(-c2cc(N3CCN(C(=O)Nc4ccc(OC)cc4OC)CC3)ncn2)cc1` registered an RP-LC retention time of 663 s.

With `Cc1sc(NC(=O)C(C)(C)C)nc1-c1ccc2c(c1)NC(=O)C(C)O2` (stereo not given), the RP-LC retention time is 908 s.

In turn, `CS(=O)(=O)N1CCC(C(=O)N2CCCc3ccccc32)Oc2ccc(Cl)cc21` (stereo not given) displayed an RP-LC retention time of 991 s.

As to `CC(C)(C)NC(=O)N1CC(c2nc(-c3cccnc3)no2)C2(CCOCC2)C1` (stereo not given), the RP-LC retention time was 677 s.

`CCOC(=O)c1cccc(N2C=C(C(=O)N3CCCC3)S(=O)(=O)c3ccc(Cl)cc32)c1` registered an RP-LC retention time of 901 s.

The compound `O=C(Cn1cc2c(n1)CCCCC2)Nc1ccc(Br)cc1F` registered an RP-LC retention time of 1050 s.

In turn, `Cc1ccc(NC(=O)C2(Cc3ccccc3)CCCCC(=O)N2)cc1` (stereo not given) returned an RP-LC retention time of 848 s.

`Cc1cccc(-n2c(=O)c3c(cc(C)n3C)n(CC(=O)Nc3ccccc3F)c2=O)c1` gave an RP-LC retention time of 836 s.

The compound `O=c1ccc(S(=O)(=O)N2CCCC2)cn1Cc1cccc(F)c1` displayed an RP-LC retention time of 826 s.

Compound `CCc1nc(OCC(=O)Nc2cc(Cl)ccc2Cl)c2ccccc2n1` returned an RP-LC retention time of 964 s.

`CCOC(=O)CNC(=O)NCCn1c(-c2ccc(F)cc2)nc2ccccc21` came in with an RP-LC retention time of 592 s.

For `COc1ccc(NC(=O)CN2CCN(Cc3ccc(F)cc3)C(=O)C2=O)cc1`, the RP-LC retention time was found to be 697 s.

Regarding `Cn1cc(-c2nc(C(=O)N3CCN(c4ccccc4Cl)CC3)cs2)c2cccnc21`, the RP-LC retention time was found to be 1070 s.

With `CC(=O)Nc1nsc(N2CCC(C(=O)NCc3ccc(F)cc3F)CC2)n1`, the RP-LC retention time was determined as 798 s.

For `Cn1c(C(=O)NCc2ccccc2Cl)cc2sc(Cl)cc21`, the RP-LC retention time is 1260 s.

Consider `COc1cccc(NC(=O)[C@H]2[C@@H](c3cc(OC)c(OC)c(OC)c3)c3cc4c(cc3[C@@H](O)[C@@H]2CO)OCO4)c1`, for which the RP-LC retention time was 704 s.

`CCOC(=O)c1noc2nc(C)nc(NCC3CCN(CCc4ccc(F)cc4)CC3)c12` came in with an RP-LC retention time of 741 s.

`COc1ccc(C)cc1S(=O)(=O)N1CCN(Cc2ccc3c(c2)OCO3)CC1` had an RP-LC retention time of 609 s.

In the case of `CC(=O)c1cccc(NC(=O)NC(c2ccccc2)c2nnc(-c3ccccc3)o2)c1` (stereo not given), the RP-LC retention time is 892 s.

On to `Cc1nn2c(CNC(=O)c3cccc(Br)c3)c(C)nc2s1`, for which the RP-LC retention time amounted to 662 s.

The compound `COCC(=O)N1CCC(Oc2nccnc2N2CCOCC2)C1` (stereo not given) returned an RP-LC retention time of 584 s.

As to `CCCCN(C)C(=O)CN1C(=O)C2CCCCN2c2ccc(S(=O)(=O)N(CC)CC)cc21` (stereo not given), the RP-LC retention time worked out at 1010 s.

Regarding `O=C(N[C@H]1C[C@@H]2C[C@H]1N(C(=O)NCc1cccc(F)c1)C2)c1cccs1`, the RP-LC retention time turned out to be 765 s.

In turn, `CN(C)C[C@@H]1CN(S(C)(=O)=O)C[C@H]1NC(=O)CC1=CCCCC1` came in with an RP-LC retention time of 602 s.

Take `Cc1cc2nc(C(=O)Nc3ccc(C#N)cc3)cc(C)n2n1`: the RP-LC retention time is 890 s.

As to `O=C(Cc1ccc(F)cc1)N(CC1CCOC1)C1CC1` (stereo not given), the RP-LC retention time is 794 s.

Compound `C[C@H]1CN(C(=O)c2ccc(F)cc2)C[C@@H]1c1nc(-c2ccccc2)no1` showed an RP-LC retention time of 996 s.

`Cc1cccc(-c2nc(-c3ccc4c(c3)oc(=O)n4C(C)C)no2)c1`: the RP-LC retention time came to 1250 s.

With `CNC(=O)Cc1ccc(NS(=O)(=O)Cc2ccc(Cl)cc2)cc1`, the RP-LC retention time came to 703 s.

The compound `CCOc1ccc(S(=O)(=O)N(CC(=O)N2CCNCC2)CC2CCCN2CC)cc1` (stereo not given) returned an RP-LC retention time of 585 s.

`COc1ncc(C(=O)NCc2ccc(N(C)C)cc2)cn1` came in with an RP-LC retention time of 564 s.

In turn, `COc1cccc(S(=O)(=O)N2CCOCC2)c1` yielded an RP-LC retention time of 708 s.

Regarding `Cc1ccc(S(=O)(=O)c2cnc(N3CCN(C(=O)OC(C)(C)C)CC3)nc2N)cc1`, the RP-LC retention time was 1030 s.

The compound `Cc1c(CNCc2cccnc2)c(C(=O)O)c(C)n1Cc1cccc(F)c1` had an RP-LC retention time of 618 s.

Compound `Cc1nnc2ccc(-c3noc(-c4ccccc4F)n3)cn12` came in with an RP-LC retention time of 770 s.

`Cc1ccc(NC(=O)c2cc3c(s2)CN(C2CCCC2)C3)c(C)c1` displayed an RP-LC retention time of 663 s.

Turning to `Clc1ccc(-c2nc(NC3CCCCCC3)c3ccccc3n2)cc1`, the RP-LC retention time came to 1030 s.

Regarding `CCOC(=O)c1ccc2nc(NC(=O)C3CCCCN3S(C)(=O)=O)sc2c1` (stereo not given), the RP-LC retention time amounted to 839 s.

With `CCCN1C(=O)c2c(C(=O)NCc3cccc(Cl)c3)ncn2CC1(C)C(=O)NC1CCCC1` (stereo not given), the RP-LC retention time turned out to be 858 s.

The compound `Cn1c(=O)oc2cc(-c3noc(-c4ccc(F)cc4)n3)ccc21` came in with an RP-LC retention time of 831 s.

Compound `CC(C)(C)NC(=O)CCc1c(-c2ccccc2)nc2ccccn12` showed an RP-LC retention time of 632 s.

Regarding `CCN1C(=O)c2cccnc2Sc2cc(NC(=O)COC)ccc21`, the RP-LC retention time came to 655 s.

Regarding `O=C(NC1CC1)c1ccc(-n2cccc2)nc1`, the RP-LC retention time amounted to 728 s.

In turn, `O=C(Nc1ccc(F)cc1F)[C@@H]1OCC(=O)N(C2CC2)[C@H]1c1ccccc1` showed an RP-LC retention time of 785 s.

In turn, `Cc1cc(C)cc(-c2nc(C3CC(=O)N(c4ccc(F)cc4)C3)no2)c1` (stereo not given) displayed an RP-LC retention time of 1060 s.

On to `Cn1ccc(C(=O)Nc2sccc2C(N)=O)n1`, for which the RP-LC retention time was determined as 623 s.

As for `Cc1ccc(F)cc1NC(=O)c1cc(C(C)C)n2nccc2n1`, the RP-LC retention time came out at 1230 s.

The compound `Cc1ccc2oc(C(=O)N3CCC(CCN4CCCC4)CC3)cc(=O)c2c1` showed an RP-LC retention time of 603 s.

In the case of `CC1(C(=O)NCc2ccccc2)CCCN(C(=O)Nc2cccc(Br)c2)C1` (stereo not given), the RP-LC retention time is 983 s.

As to `COc1ccc(CN2CC(C(=O)N3CCN(c4cc(=O)n(C)c(=O)n4C)CC3)CC2=O)cc1` (stereo not given), the RP-LC retention time is 630 s.

Compound `COc1ccc(N2CCN(c3cc(SCC(=O)NCCC4=CCCCC4)ncn3)CC2)cc1` displayed an RP-LC retention time of 1080 s.

Compound `COC(=O)c1c(C)[nH]c(C(=O)N2CCC(CC(=O)NCc3ccc(N(C)C)cc3)CC2)c1C` yielded an RP-LC retention time of 595 s.

`COc1ccccc1-c1noc(Cn2cnc3c(cnn3-c3ccc(Cl)cc3)c2=O)n1`: the RP-LC retention time is 1010 s.

`CNC(=O)C1CCCN(c2nc3ncn(CC(=O)Nc4ccc(F)cc4F)c(=O)c3s2)C1` (stereo not given) showed an RP-LC retention time of 635 s.

On to `CCOC(=O)N1CCC(NC(=O)C(=O)NCc2cccs2)CC1`, for which the RP-LC retention time came to 692 s.

Compound `O=C(CN1CCN(Cc2ccccc2)C1=O)N1CCN(c2ccccc2F)CC1` displayed an RP-LC retention time of 824 s.

In turn, `COCCNC(=O)c1csc(N2CCN(c3ccc(Cl)cc3)CC2)n1` had an RP-LC retention time of 972 s.

Compound `Cc1cc(F)ccc1S(=O)(=O)NCC(c1ccsc1)N1CCOCC1` (stereo not given) came in with an RP-LC retention time of 572 s.

Take `CCOc1ccccc1-c1noc(Cn2cnc3c(cnn3-c3ccc(C)c(Cl)c3)c2=O)n1`: the RP-LC retention time came to 1230 s.

Regarding `O=c1n(CC2CC2)nc2n1CCC(NS(=O)(=O)c1cccc(F)c1)CC2` (stereo not given), the RP-LC retention time worked out at 717 s.

Compound `O=C(Nc1ccc2c(c1)OCO2)C(=O)c1ccc[nH]1` showed an RP-LC retention time of 802 s.

Turning to `CC1CC(=O)Nc2ccccc2N1C(=O)COc1ccc(Cl)cc1Cl` (stereo not given), the RP-LC retention time is 844 s.

Regarding `Cc1ccc(-n2nc3c(=O)n(CCCC(=O)N4CCCC4)nc(C)c3c2C)cc1`, the RP-LC retention time was 748 s.

Regarding `Cc1ccc(Oc2nccnc2N2CCC(C(=O)NCCCN3CCOCC3)CC2)cc1`, the RP-LC retention time is 648 s.

The compound `CCOC(=O)N1CCN(C(=O)CCC2CCN(c3cc(NC4CC4)ncn3)CC2)CC1` displayed an RP-LC retention time of 561 s.

Compound `CSc1ccccc1CN1CCC(CNS(=O)(=O)/C=C/c2ccccc2)CC1` showed an RP-LC retention time of 607 s.

`Cc1nn(-c2cc(N3CCCC3)ncn2)c(C)c1CCC(=O)NCCc1ccco1`: the RP-LC retention time was found to be 721 s.

Compound `CCOc1ccc(NC(=O)C2(C)Oc3cccnc3N(CC)C2=O)cc1` (stereo not given) showed an RP-LC retention time of 913 s.

Take `COc1ccc(CSc2nccc3c2ccn3CC(=O)N2CCN(c3ccccc3)CC2)cc1`: the RP-LC retention time came out at 786 s.

The compound `CCOc1ccc(CC(=O)N2CCN(c3ccc(-c4nc(C)cs4)cn3)CC2)cc1` had an RP-LC retention time of 883 s.

As to `Cc1nc(-c2cc(S(=O)(=O)N3CCC(C(=O)N4CCc5ccccc54)CC3)c(C)s2)no1`, the RP-LC retention time is 1040 s.

`CC1CCCCN1S(=O)(=O)c1ccc2nc(N3CCN(c4ccc(F)cc4)CC3)ccc2c1` (stereo not given) came in with an RP-LC retention time of 1100 s.

As for `CCc1ccc(NC(=O)Cn2cnc3nc(N4CCCC(C(=O)NC(C)C)C4)sc3c2=O)cc1` (stereo not given), the RP-LC retention time is 710 s.

As to `O=C(NCc1ccc(F)cc1)C1CCN(S(=O)(=O)c2cc(C(=O)N3CCOCC3)cs2)CC1`, the RP-LC retention time was found to be 739 s.

The compound `Cc1nnc2c(NC(=O)C3CCCC3)cccn12` yielded an RP-LC retention time of 644 s.

The compound `Cc1cccc(Cn2nc3n(Cc4ccc(F)cc4)c(=O)c4nn(C)cc4n3c2=O)c1` had an RP-LC retention time of 940 s.

For `CCOc1ccc(-c2noc(N3CCC(C(=O)N4CCOCC4)CC3)n2)cc1OC`, the RP-LC retention time is 736 s.

`CCC1CCCCN1C(=O)Cc1c(C)nc2nc(-c3ccc(C(C)(C)C)cc3)nn2c1C` (stereo not given) registered an RP-LC retention time of 1160 s.

For the compound `CN1CCN(CCNC(=O)c2ccc3nc(-c4ccc(Cl)cc4)cn3c2)CC1`, the RP-LC retention time worked out at 579 s.
